Patent US5158940A (priority 1990, dated 1992)
Structures can show the parent of a compound that is named as a salt.

What was measured:
[1] = test system: rheumatoid arthritis; format: in vivo, person
From the text: A person was initially diagnosed in 1975 with polyarthritis and an elevated serum rheumatoid factor level. Since then, the patient had required almost uninterrupted treatment with either supraphysiologic doses of steroid or remission-inducing agents. These included hydroxycloroquine, gold salts, cytoxan and most recently, penicillamine together with prednisone.
Prior to initiating suramin therapy, penicillamine and prednisone were discontinued and the patient was placed on physiologic replacement doses of hydrocortisone. […] Their serum rheumatoid factor titer was 1:2560. Serum antinuclear antibodies were absent and both anti-DNA screen and LE cell test were negative.

[2] = test system: human immunodeficiency virus (HIV); conditions: in vitro; JAMA 258 p. 1347-51 (1987); cited from earlier work
[3] = test system: cytoplasmic and intranuclear enzymes; conditions: Cancer Res. 47 p. 4694-8 (1987) and J. Clin. Onc. 7 p. 499-508 (1989); cited from earlier work
[4] = in vivo; cited from earlier work
[5] = test system: various growth factors; conditions: in vitro; J. Cellular Physiology 132 p. 143-8 (1987); cited from earlier work
[6] = test system: reverse transcriptase enzyme; conditions: in vitro; JAMA 258 p. 1347-51 (1987); cited from earlier work
[7] = test system: parasitic infections; conditions: one gram bolus parenterally once per week for six weeks, total six grams; cited from earlier work
[8] = nine months after initial start, no suramin after third cycle at six months
[9] = treatment period plus three months afterwards without suramin

Cc1ccc(C(=O)Nc2ccc(S(=O)(=O)O)c3cc(S(=O)(=O)O)cc(S(=O)(=O)O)c23)cc1NC(=O)c1cccc(NC(=O)Nc2cccc(C(=O)Nc3cc(C(=O)Nc4ccc(S(=O)(=O)O)c5cc(S(=O)(=O)O)cc(S(=O)(=O)O)c45)ccc3C)c2)c1 [Suramin, hexasodium salt of 8,8'-(carbonyl-bis(imino-3,1-phenylenecarbonylimino(4-methyl-3,1-phenylene)carbonylimo))bis-1,3,5-naphthalenetrisulfonic acid]
formal rheumatologic evaluation (inflammatory joint disease, synovial proliferation) ([1]; at the end of therapy): virtually no inflammatory joint disease with only minimal synovial proliferation in the ulnar carpal region of their right wrist | joint abnormalities in follow up hand photograph ([1]; follow up hand photograph): failed to show any significant change in their minimal joint abnormalities | hematologic, hepatic or renal toxicity ([1]; in vivo): did not experience any significant hematologic, hepatic or renal toxicity | size of rheumatoid nodules ([1]; initially documented after three months, more pronounced at five months): regression in the size of their multiple rheumatoid nodules | arthritic symptoms at nine months [1, 8]: continued to remain without arthritic symptoms | size of remaining rheumatoid nodules [1, 8]: remained unchanged | disappearance of rheumatoid nodules ([1]; start of third cycle at five months): complete disappearance of as many as a third | arthritic symptoms [1, 9]: improvement in their arthritic symptoms | synovial swelling [1, 9]: decreased synovial swelling | ability to revert the cytopathic effect of HIV [2]: revert the cytopathic effect of human immunodeficiency virus (HIV) in vitro | binding to a variety of cytoplasmic and intranuclear enzymes [3]: bind to a variety of cytoplasmic and intranuclear enzymes | plasma half-life [4]: 45 to 55 days | ability to inhibit the activity of various growth factors [5]: inhibit the activity of various growth factors in vitro | ability to inhibit the reverse transcriptase enzyme [6]: inhibit the reverse transcriptase enzyme | effectiveness for treating parasitic infections [7]: generally effective for treating parasitic infections
